Measurements as given in US4575497A, “3, 3", 4"-Tri-O-acylspiramycin I” (Kyowa Hakko Kogyo Co., Ltd, priority 1983, dated 1986).

Experiments:
[1] = tested on: Staphylococcus aureus KB210; assay: MIC against Staphylococcus aureus KB210 (A); type: cell-based; details: Heart infusion agar (pH 7.0)
Description: (§1) The minimum inhibitory concentration (MIC) of Compound (I) is shown in Table 4 in comparison with that of spiramycin I.
(§2) Minimum inhibitory concentration (MIC, μ g/ml)
(§3) Remark: medium used: Heart infusion agar (pH 7.0)
A: Staphylococcus aureus KB210

[2] = tested on: Staphylococcus aureus KB199; assay: MIC against Staphylococcus aureus KB199 (B); type: cell-based; details: Heart infusion agar (pH 7.0)
Description: as §1, §2, §3
B: Staphylococcus aureus KB199

Bacillus subtilis KB211 = assay: MIC against Bacillus subtilis KB211 (C); type: cell-based; details: Heart infusion agar (pH 7.0)
Description: as §1, §2, §3
C: Bacillus subtilis KB211

Bacillus cereus KB143 = assay: MIC against Bacillus cereus KB143 (D); type: cell-based; details: Heart infusion agar (pH 7.0)
Description: as §1, §2, §3
D: Bacillus cereus KB143

Micrococcus ruteus KB212 = assay: MIC against Micrococcus ruteus KB212 (E); type: cell-based; details: Heart infusion agar (pH 7.0)
Description: as §1, §2, §3
E: Micrococcus ruteus KB212

Escherichia coli KB213 = assay: MIC against Escherichia coli KB213 (F); type: cell-based; details: Heart infusion agar (pH 7.0)
Description: as §1, §2, §3
F: Escherichia coli KB213

[3] = tested on: Klebsiella pneumoniae KB214; assay: MIC against Klebsiella pneumoniae KB214 (G); type: cell-based; details: Heart infusion agar (pH 7.0)
Description: as §1, §2, §3
G: Klebsiella pneumoniae KB214

[4] = tested on: Streptococcus pneumoniae Type III; assay: Infection-healing effect, mice protection test (Test Example); type: in vivo; details: for Number of survived mice out of 10 mice: 60 mg/kg in 0.3% CMC, orally just after i.p. inoculation (1.1×10^2 cfu/mouse), 7th day; for therapeutic effect in an infection-healing test in mice: Streptococcus pneumoniae Type III, compared with acetylspiramycin and 3, 3", 4"-tri-O-acetylspiramycin I
Experimental: A test example of the therapeutic effect of Compound (I) in experimental test mice protection test will be given below:
Animal: ddY-strain male mice, 19±lg, one group consisting of ten mice.
Test bacterium: Streptococcus pneumoniae Type III, Inoculation rate: 1.1×10^2 cfu/mouse.
The predetermined amount of the precultured test bacteria was inoculated via i.p.
Medicament administration: 60 mg/kg of each of the medicaments was suspended in 0.3% CMC, and orally administered just after the inoculation of bacteria.

[5] = background literature, in words; cited from earlier work
[6] = tested on: Streptococcus pneumoniae Type III; assay: Healing effect on test infection in mice, ED50 (Reference Example 1); type: in vivo; details: oral, 0.3% CMC, just after i.p. inoculation; Probit method, survived animals on the 7th day
Description: Comparison of healing effects of acetylspiramycin and 3, 3", 4"-tri-O-acetylspiramycin I on test infection in mice
Animal : ddY-strain male mice, 19±lg, one group consisting of ten mice.
Test bacterium : Streptococcus pneumoniae Type III. Inoculation rate : 1.1×10^2 cfu/mouse.
The predetermined amount of the precultured test bacteria was inoculated via i.p..
Medicament administration : Each of the medicaments was suspended in 0.3% CMC, and orally administered just after the inoculation of bacteria.

Compound	Minimum inhibitory concentration (MIC) [1] [μ g/ml]	Minimum inhibitory concentration (MIC) [2] [μ g/ml]	Minimum inhibitory concentration (MIC) (Bacillus subtilis KB211) [μ g/ml]	Minimum inhibitory concentration (MIC) (Bacillus cereus KB143) [μ g/ml]	Minimum inhibitory concentration (MIC) (Micrococcus ruteus KB212) [μ g/ml]	Minimum inhibitory concentration (MIC) (Escherichia coli KB213) [μ g/ml]	Minimum inhibitory concentration (MIC) [3] [μ g/ml]	Number of survived mice out of 10 mice [4]	therapeutic effect in an infection-healing test in mice [4]	in vivo activity compared with starting compounds [5]	ED50 [6] [mg/kg]
CCC(=O)OC1C(C)OC(OC2C(C)OC(OC3C(CC=O)CC(C)C(OC4CCC(N(C)C)C(C)O4)C=CC=CCC(C)OC(=O)CC(OC(C)=O)C3OC)C(O)C2N(C)C)CC1(C)OC(C)=O (stereo not drawn) [Compound 1, 3, 3"-di-O-acetyl-4"-O-propionylspiramycin I]	3.12	> 100	1.56	3.12	< 0.1	> 100	> 100	5 mice out of 10 mice	–	–	–
CCC(=O)OC1CC(=O)OC(C)CC=CC=CC(OC2CCC(N(C)C)C(C)O2)C(C)CC(CC=O)C(OC2OC(C)C(OC3CC(C)(OC(C)=O)C(OC(=O)CC)C(C)O3)C(N(C)C)C2O)C1OC (stereo not drawn) [Compound 8, 3"-O-acetyl-3, 4"-di-O-propionylspiramycin I]	3.12	> 100	3.12	3.12	0.2	> 100	> 100	10 mice out of 10 mice	more excellent therapeutic effect than acetylspiramycin and 3, 3", 4"-tri-O-acetylspiramycin I	–	–
CCC(=O)OC1CC(=O)OC(C)CC=CC=CC(OC2CCC(N(C)C)C(C)O2)C(C)CC(CC=O)C(OC2OC(C)C(OC3CC(C)(OC(=O)CC)C(OC(C)=O)C(C)O3)C(N(C)C)C2O)C1OC (stereo not drawn) [Compound 3, 3,3"-di-O-propionyl-4"-O-acetylspiramycin I]	3.12	> 100	3.12	3.12	< 0.1	> 100	> 100	5 mice out of 10 mice	–	–	–
3", 9-di-O-acetyl compound of midecamycin	–	–	–	–	–	–	–	–	–	better in vivo activity	–
CCC(=O)OC1(C)CC(OC2C(C)OC(OC3C(CC=O)CC(C)C(OC4CCC(N(C)C)C(C)O4)C=CC=CCC(C)OC(=O)CC(OC(C)=O)C3OC)C(O)C2N(C)C)OC(C)C1OC(C)=O (stereo not drawn) [Compound 5, 3, 4"-di-O-acetyl-3"-O-propionylspiramycin I]	3.12	> 100	3.12	1.56	< 0.1	> 100	> 100	3 mice out of 10 mice	–	–	–
CCCC(=O)OC1(C)CC(OC2C(C)OC(OC3C(CC=O)CC(C)C(OC4CCC(N(C)C)C(C)O4)C=CC=CCC(C)OC(=O)CC(OC(C)=O)C3OC)C(O)C2N(C)C)OC(C)C1OC(C)=O (stereo not drawn) [Compound 6, 3, 4"-di-O-acetyl-3"-O-butyrylspiramycin I]	6.25	> 100	3.12	1.56	0.2	> 100	> 100	10 mice out of 10 mice	more excellent therapeutic effect than acetylspiramycin and 3, 3", 4"-tri-O-acetylspiramycin I	–	–
CO[C@@H]1[C@@H](O[C@@H]2O[C@H](C)[C@@H](O[C@H]3C[C@@](C)(O)[C@@H](O)[C@H](C)O3)[C@H](N(C)C)[C@H]2O)[C@@H](CC=O)C[C@@H](C)[C@@H](O[C@H]2CC[C@H](N(C)C)[C@@H](C)O2)/C=C/C=C/C[C@@H](C)OC(=O)C[C@H]1O [SPMI, Spiramycin I]	1.56	> 100	0.78	1.56	< 0.1	100	100	0 mice out of 10 mice	–	–	–
CCCC(=O)OC1C(C)OC(OC2C(C)OC(OC3C(CC=O)CC(C)C(OC4CCC(N(C)C)C(C)O4)C=CC=CCC(C)OC(=O)CC(OC(C)=O)C3OC)C(O)C2N(C)C)CC1(C)OC(C)=O (stereo not drawn) [Compound 2, 3, 3"-di-O-acetyl-4"-O-butyrylspiramycin I]	1.56	> 100	1.56	1.56	< 0.1	> 100	100	5 mice out of 10 mice	–	–	–
COC1C(OC(C)=O)CC(=O)OC(C)CC=CC=CC(OC2CCC(N(C)C)C(C)O2)C(C)CC(CC=O)C1OC1OC(C)C(OC2CC(C)(OC(C)=O)C(OC(C)=O)C(C)O2)C(N(C)C)C1O (stereo not drawn) [3, 3", 4"-tri-O-acetylspiramycin, 3, 3", 4"-tri-O-acetylspiramycin I]	–	–	–	–	–	–	–	–	–	–	69.5
CCCC(=O)O[C@H]1[C@H](C)O[C@@H](O[C@H]2[C@H](N(C)C)[C@@H](O)[C@H](O[C@H]3[C@@H](CC=O)C[C@@H](C)[C@@H](O)/C=C/C=C/C[C@@H](C)OC(=O)C[C@@H](O)[C@@H]3OC)O[C@@H]2C)C[C@@]1(C)OC(=O)CC [3"-O-propionyl compound of leucomycin A5]	–	–	–	–	–	–	–	–	–	better in vivo activity	–
CCC(=O)OC1CC(=O)OC(C)CC=CC=CC(OC2CCC(N(C)C)C(C)O2)C(C)CC(CC=O)C(OC2OC(C)C(OC3CC(C)(OC(=O)CC)C(OC(=O)CC)C(C)O3)C(N(C)C)C2O)C1OC (stereo not drawn) [Compound 4, 3, 3", 4"-tri-O-propionylspiramycin I]	1.56	> 100	1.56	1.56	< 0.1	> 100	> 100	10 mice out of 10 mice	more excellent therapeutic effect than acetylspiramycin and 3, 3", 4"-tri-O-acetylspiramycin I	–	–
CCCC(=O)OC1(C)CC(OC2C(C)OC(OC3C(CC=O)CC(C)C(OC4CCC(N(C)C)C(C)O4)C=CC=CCC(C)OC(=O)CC(OC(=O)CC)C3OC)C(O)C2N(C)C)OC(C)C1OC(=O)CC (stereo not drawn) [Compound 7, 3, 4"-di-O-propionyl-3"-O-butyrylspiramycin I]	3.12	> 100	1.56	1.56	< 0.1	> 100	> 100	5 mice out of 10 mice	–	–	–
CCCC(=O)OC1C(C)OC(OC2C(C)OC(OC3C(CC=O)CC(C)C(OC4CCC(N(C)C)C(C)O4)C=CC=CCC(C)OC(=O)CC(OC(=O)CC)C3OC)C(O)C2N(C)C)CC1(C)OC(=O)CC (stereo not drawn) [Compound 9, 3, 3"-di-O-propionyl-4"-O-butyrylspiramycin I]	3.12	> 100	3.12	3.12	0.2	> 100	> 100	8 mice out of 10 mice	more excellent therapeutic effect than acetylspiramycin and 3, 3", 4"-tri-O-acetylspiramycin I	–	–
